pIC50: −log10 of the molar value.
Legend:
Assay in all cases: cells
[1] = test system: CaR-1; assay type: functional, cell-based, Homo sapiens; conditions: Homo sapiens, CaR-1;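 also: growth inhibition of human CaR-1 cancer cells, read out with a cell viability assay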
Description: SANGER: Inhibition of human CaR-1 cell growth in a cell viability assay.

[2] = test system: DB; assay type: functional, cell-based; conditions: Homo sapiens
Description: SANGER: Inhibition of human DB cell growth in a cell viability assay.

[3] = test system: GCIY; assay type: functional, cell-based, Homo sapiens; conditions: Homo sapiens, GCIY;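 also: growth inhibition of the human GCIY cell line, read out by a cell viability assay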
Description: SANGER: Inhibition of human GCIY cell growth in a cell viability assay.

[4] = test system: IST-MEL1; assay type: functional, cell-based, Homo sapiens; conditions: Homo sapiens, IST-MEL1;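 also: growth inhibition of the cell line, read out with a cell viability assay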
Description: SANGER: Inhibition of human IST-MEL1 cell growth in a cell viability assay.

[5] = test system: J82; assay type: functional, cell-based; conditions: Homo sapiens;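 also: growth inhibition of J82 cells, read out with a cell viability assay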
Description: SANGER: Inhibition of human J82 cell growth in a cell viability assay.

[6] = test system: KINGS-1; assay type: functional, cell-based, Homo sapiens; conditions: Homo sapiens, KINGS-1;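 also: cell viability assay measuring suppression of KINGS-1 cell growth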
Description: SANGER: Inhibition of human KINGS-1 cell growth in a cell viability assay.

[7] = test system: KYSE-410; assay type: functional, cell-based, Homo sapiens; conditions: Homo sapiens, KYSE-410;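 also: growth inhibition of KYSE-410 cells, measured through a cell viability readout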
Description: SANGER: Inhibition of human KYSE-410 cell growth in a cell viability assay.

[8] = test system: KYSE-70 cell line; assay type: functional, cell-based, Homo sapiens; conditions: Homo sapiens, KYSE-70;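 also: cell viability assay read-out, with IC50 expressing suppression of KYSE-70 cell growth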
Description: SANGER: Inhibition of human KYSE-70 cell growth in a cell viability assay.

[9] = test system: L-428; assay type: functional, cell-based; conditions: Homo sapiens
Description: SANGER: Inhibition of human L-428 cell growth in a cell viability assay.

[10] = test system: LB2518-MEL; assay type: functional, cell-based, Homo sapiens; conditions: Homo sapiens, LB2518-MEL;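 also: growth inhibition of human LB2518-MEL cells, measured with a cell viability assay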
Description: SANGER: Inhibition of human LB2518-MEL cell growth in a cell viability assay.

[11] = test system: LCLC-97TM1; assay type: functional, cell-based, Homo sapiens; conditions: Homo sapiens, LCLC-97TM1;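 also: cell viability assay measuring growth inhibition of human LCLC-97TM1 cells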
Description: SANGER: Inhibition of human LCLC-97TM1 cell growth in a cell viability assay.

[12] = test system: LS-1034; assay type: functional, cell-based, Homo sapiens; conditions: Homo sapiens, LS-1034
Description: SANGER: Inhibition of human LS-1034 cell growth in a cell viability assay.

[13] = test system: LU-134-A; assay type: functional, cell-based; conditions: Homo sapiens
Description: SANGER: Inhibition of human LU-134-A cell growth in a cell viability assay.

[14] = test system: Lu-65; assay type: functional, cell-based; conditions: Homo sapiens;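 also: growth inhibition of Lu-65 cancer cells, read out by a cell viability assay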
Description: SANGER: Inhibition of human LU-65 cell growth in a cell viability assay.

[15] = test system: LoVo; assay type: functional, cell-based; conditions: Homo sapiens;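 also: growth inhibition of human LoVo cells, read out with a cell viability assay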
Description: SANGER: Inhibition of human LoVo cell growth in a cell viability assay.

[16] = test system: M14; assay type: functional, cell-based, Homo sapiens; conditions: Homo sapiens, M14;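 also: growth inhibition of M14 cells, read out with a cell viability assay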
Description: SANGER: Inhibition of human M14 cell growth in a cell viability assay.

[17] = test system: MDA-MB-175-VII; assay type: functional, cell-based, Homo sapiens; conditions: Homo sapiens, MDA-MB-175-VII
[18] = test system: MDA-MB-415; assay type: functional, cell-based; conditions: Homo sapiens
[19] = test system: MFH-ino; assay type: functional, cell-based; conditions: Homo sapiens;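 also: growth inhibition of human MFH-ino cells, read out by a cell viability assay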
Description: SANGER: Inhibition of human MFH-ino cell growth in a cell viability assay.

[20] = test system: MKN-1; assay type: functional, cell-based, Homo sapiens; conditions: Homo sapiens, MKN-1;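 also: growth inhibition of human MKN1 cells, read out by a cell viability measurement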
Description: SANGER: Inhibition of human MKN1 cell growth in a cell viability assay.

[21] = test system: MKN-7; assay type: functional, cell-based, Homo sapiens; conditions: Homo sapiens, MKN-7;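 also: growth inhibition of MKN-7 cells, read out with a cell viability assay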
Description: SANGER: Inhibition of human MKN7 cell growth in a cell viability assay.

[22] = test system: MN-60; assay type: functional, cell-based; conditions: Homo sapiens;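 also: growth inhibition of the MN-60 cell line, determined with a cell viability assay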
Description: SANGER: Inhibition of human MN-60 cell growth in a cell viability assay.

[23] = test system: NB10; assay type: functional, cell-based, Homo sapiens; conditions: Homo sapiens, NB10;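 also: growth inhibition of NB10 cells, read out by a cell viability assay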
Description: SANGER: Inhibition of human NB10 cell growth in a cell viability assay.

[24] = test system: NCI-H1838; assay type: functional, cell-based, Homo sapiens; conditions: Homo sapiens, NCI-H1838;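 also: growth inhibition of NCI-H1838 cells, determined with a cell viability readout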
Description: SANGER: Inhibition of human NCI-H1838 cell growth in a cell viability assay.

[25] = test system: NCI-H446; assay type: functional, cell-based; conditions: Homo sapiens;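 also: growth inhibition of NCI-H446 cells determined by a cell viability assay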
Description: SANGER: Inhibition of human NCI-H446 cell growth in a cell viability assay.

[26] = test system: NCI-H526; assay type: functional, cell-based; conditions: Homo sapiens;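 also: growth inhibition of the human NCI-H526 cell line, measured by a cell viability assay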
Description: SANGER: Inhibition of human NCI-H526 cell growth in a cell viability assay.

[27] = test system: PA-1; assay type: functional, cell-based, Homo sapiens; conditions: Homo sapiens, PA-1;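 also: IC50 for suppression of PA-1 cell proliferation, determined with a cell viability read-out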
Description: SANGER: Inhibition of human PA-1 cell growth in a cell viability assay.

[28] = test system: PFSK-1; assay type: functional, cell-based, Homo sapiens; conditions: Homo sapiens, PFSK-1;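 also: cell viability assay measuring how strongly compounds suppress growth of human PFSK-1 cells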
Description: SANGER: Inhibition of human PFSK-1 cell growth in a cell viability assay.

[29] = test system: RERF-LC-MS; assay type: functional, cell-based, Homo sapiens; conditions: Homo sapiens, RERF-LC-MS;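 also: growth inhibition of human RERF-LC-MS cells, read out by a cell viability assay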
Description: SANGER: Inhibition of human RERF-LC-MS cell growth in a cell viability assay.

[30] = test system: RT-112; assay type: functional, cell-based, Homo sapiens; conditions: Homo sapiens, RT-112
[31] = test system: SCC-15; assay type: functional, cell-based, Homo sapiens; conditions: Homo sapiens, SCC-15;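 also: growth inhibition of SCC-15 cells, read out with a cell viability assay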
Description: SANGER: Inhibition of human SCC-15 cell growth in a cell viability assay.

[32] = test system: SK-N-DZ; assay type: functional, cell-based, Homo sapiens; conditions: Homo sapiens, SK-N-DZ;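 also: growth inhibition of the cancer cell line, read out through a viability assay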
Description: SANGER: Inhibition of human SK-N-DZ cell growth in a cell viability assay.

[33] = test system: SW1088; assay type: functional, cell-based, Homo sapiens; conditions: Homo sapiens, SW1088;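 also: growth inhibition of human SW1088 cells, read out by a cell viability assay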
Description: SANGER: Inhibition of human SW1088 cell growth in a cell viability assay.

[34] = test system: SW948; assay type: functional, cell-based, Homo sapiens; conditions: Homo sapiens, SW948;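 also: growth inhibition of SW948 cells, read out with a cell viability assay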
Description: SANGER: Inhibition of human SW948 cell growth in a cell viability assay.

[35] = test system: SiHa; assay type: functional, cell-based, Homo sapiens; conditions: Homo sapiens, SiHa;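 also: Viability-based readout of growth inhibition in SiHa cells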
Description: SANGER: Inhibition of human SiHa cell growth in a cell viability assay.

[36] = test system: TCC-SUP; assay type: functional, cell-based, Homo sapiens; conditions: Homo sapiens, TCC-SUP;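 also: growth inhibition of TCC-SUP cells, read out with a cell viability assay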
Description: SANGER: Inhibition of human TCCSUP cell growth in a cell viability assay.

[37] = test system: 786-0; assay type: functional, cell-based, Homo sapiens; conditions: Homo sapiens
Description: SANGER: Inhibition of human 786-0 cell growth in a cell viability assay.

[38] = test system: A-427; assay type: functional, cell-based, Homo sapiens; conditions: Homo sapiens, A-427;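 also: growth inhibition of human A-427 cells, read out by a cell viability assay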
Description: SANGER: Inhibition of human A427 cell growth in a cell viability assay.

[39] = test system: A498; assay type: functional, cell-based, Homo sapiens; conditions: Homo sapiens, A498;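 also: growth inhibition of human A498 cells, read out with a cell viability assay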
Description: SANGER: Inhibition of human A498 cell growth in a cell viability assay.

[40] = test system: AN3-CA; assay type: functional, cell-based; conditions: Homo sapiens;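 also: growth inhibition of human AN3-CA cells measured by a cell viability assay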
Description: SANGER: Inhibition of human AN3-CA cell growth in a cell viability assay.

[41] = test system: BB49-HNC; assay type: functional, cell-based, Homo sapiens; conditions: Homo sapiens, BB49-HNC;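 also: cell viability assay read-out, reported as inhibition of BB49-HNC cell growth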
Description: SANGER: Inhibition of human BB49-HNC cell growth in a cell viability assay.

[42] = test system: BB65-RCC; assay type: functional, cell-based, Homo sapiens; conditions: Homo sapiens, BB65-RCC;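 also: growth inhibition of the cell line, measured with a cell viability assay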
Description: SANGER: Inhibition of human BB65-RCC cell growth in a cell viability assay.

[43] = test system: BCPAP; assay type: functional, cell-based, Homo sapiens; conditions: Homo sapiens, BCPAP;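 also: growth inhibition of BCPAP cells, read out in a cell viability assay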
Description: SANGER: Inhibition of human BCPAP cell growth in a cell viability assay.

[44] = test system: BPH-1; assay type: functional, cell-based, Homo sapiens; conditions: Homo sapiens, BPH-1;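 also: cell viability assay measuring growth inhibition of human BPH-1 cells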
Description: SANGER: Inhibition of human BPH-1 cell growth in a cell viability assay.

[45] = test system: BT-474; assay type: functional, cell-based, Homo sapiens; conditions: Homo sapiens, BT-474
Description: SANGER: Inhibition of human BT-474 cell growth in a cell viability assay.

[46] = test system: C32; assay type: functional, cell-based, Homo sapiens; conditions: Homo sapiens, C32;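 also: cell viability assay, with IC50 reflecting inhibition of C32 cell growth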
Description: SANGER: Inhibition of human C32 cell growth in a cell viability assay.

[47] = test system: C3A; assay type: functional, cell-based, Homo sapiens; conditions: Homo sapiens, C3A;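 also: growth inhibition of C3A human cells, quantified with a cell viability readout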
Description: SANGER: Inhibition of human C3A cell growth in a cell viability assay.

[48] = test system: CAL-120; assay type: functional, cell-based, Homo sapiens; conditions: Homo sapiens, CAL-120;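 also: cell growth inhibition, read out as cell viability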
Description: SANGER: Inhibition of human CAL-120 cell growth in a cell viability assay.

[49] = test system: U-118-MG; assay type: functional, cell-based, Homo sapiens; conditions: Homo sapiens, U-118-MG
Description: SANGER: Inhibition of human U-118-MG cell growth in a cell viability assay.

[50] = test system: U-266; assay type: functional, cell-based; conditions: Homo sapiens
Description: SANGER: Inhibition of human U-266 cell growth in a cell viability assay.

[51] = test system: UO-31; assay type: functional, cell-based; conditions: Homo sapiens;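 also: cell viability assay measuring inhibition of cell growth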
Description: SANGER: Inhibition of human U031 cell growth in a cell viability assay.

[52] = test system: CHP-212; assay type: functional, cell-based, Homo sapiens; conditions: Homo sapiens, CHP-212
Description: SANGER: Inhibition of human CHP-212 cell growth in a cell viability assay.

Compound `Cc1ccc(Nc2nccc(N(C)c3ccc4c(C)n(C)nc4c3)n2)cc1S(N)(=O)=O` [PAZOPANIB] has a pIC50 [1] of less than 5.10, a pIC50 [2] of less than 5.10 and a pIC50 [3] of less than 5.10. The pIC50 [4] was less than 5.10, the pIC50 [5] was 5.69 and the pIC50 [6] was less than 5.10. It also gave a pIC50 [7] of less than 5.10, a pIC50 [8] of less than 5.10 and a pIC50 [9] of less than 5.10. It also gave a pIC50 [10] of less than 5.10, a pIC50 [11] of less than 5.10 and a pIC50 [12] of less than 5.10. It also gave a pIC50 [13] of less than 5.10, a pIC50 [14] of less than 5.10 and a pIC50 [15] of less than 5.10. The pIC50 [16] was less than 5.10, the pIC50 [17] was less than 5.10 and the pIC50 [18] was less than 5.10. The pIC50 [19] was less than 5.10, the pIC50 [20] was less than 5.10 and the pIC50 [21] was less than 5.10. For the same compound, the pIC50 [22] was less than 5.10, the pIC50 [23] was less than 5.10 and the pIC50 [24] was less than 5.10. For the same compound, the pIC50 [25] was less than 5.10, the pIC50 [26] was less than 5.10 and the pIC50 [27] was less than 5.10. The pIC50 [28] was less than 5.10, the pIC50 [29] was less than 5.10 and the pIC50 [30] was 5.96. It also gave a pIC50 [31] of less than 5.10, a pIC50 [32] of 5.69 and a pIC50 [33] of less than 5.10. The pIC50 [34] was less than 5.10, the pIC50 [35] was less than 5.10 and the pIC50 [36] was less than 5.10. The pIC50 [37] was less than 5.10, the pIC50 [38] was 5.70 and the pIC50 [39] was less than 5.10. For the same compound, the pIC50 [40] was 8.00, the pIC50 [41] was less than 5.10 and the pIC50 [42] was less than 5.10. For the same compound, the pIC50 [43] was less than 5.10, the pIC50 [44] was less than 5.10 and the pIC50 [45] was less than 5.10. It also gave a pIC50 [46] of less than 5.10, a pIC50 [47] of less than 5.10 and a pIC50 [48] of less than 5.10. The pIC50 [49] was less than 5.10, the pIC50 [50] was less than 5.10 and the pIC50 [51] was less than 5.10. The pIC50 [52] was less than 5.10.
For `CC(=O)O[C@@]12CO[C@@H]1C[C@H](O)[C@@]1(C)C(=O)[C@H](O)C3=C(C)[C@@H](OC(=O)[C@H](O)[C@@H](NC(=O)OC(C)(C)C)c4ccccc4)C[C@@](O)([C@@H](OC(=O)c4ccccc4)[C@H]21)C3(C)C` [DOCETAXEL], the pIC50 [1] was 8.48, the pIC50 [2] was 8.75 and the pIC50 [3] was less than 8.00. The pIC50 [4] was 8.65, the pIC50 [5] was less than 8.00 and the pIC50 [6] was 8.93. It also gave a pIC50 [7] of 8.91, a pIC50 [8] of 8.20 and a pIC50 [9] of less than 8.00. It also gave a pIC50 [10] of less than 8.00, a pIC50 [11] of 8.84 and a pIC50 [12] of less than 8.00. It also gave a pIC50 [13] of less than 8.00, a pIC50 [14] of less than 8.00 and a pIC50 [15] of less than 8.00. For the same compound, the pIC50 [16] was 8.72, the pIC50 [17] was less than 8.00 and the pIC50 [18] was 8.56. For the same compound, the pIC50 [19] was less than 8.00, the pIC50 [20] was less than 8.00 and the pIC50 [21] was less than 8.00. The pIC50 [22] was less than 8.00, the pIC50 [23] was less than 8.00 and the pIC50 [24] was less than 8.00. The pIC50 [25] was 8.61, the pIC50 [26] was 8.75 and the pIC50 [27] was 9.16. The pIC50 [28] was 9.18, the pIC50 [29] was 8.95 and the pIC50 [30] was 8.93. The pIC50 [31] was 8.16, the pIC50 [32] was 8.01 and the pIC50 [33] was 8.53. The pIC50 [34] was less than 8.00, the pIC50 [35] was 8.37 and the pIC50 [36] was less than 8.00. For the same compound, the pIC50 [37] was 8.10, the pIC50 [38] was 8.83 and the pIC50 [39] was 9.56. The pIC50 [40] was 8.30, the pIC50 [41] was 8.67 and the pIC50 [42] was 8.51. The pIC50 [43] was 9.02, the pIC50 [44] was 8.99 and the pIC50 [45] was less than 8.00. For the same compound, the pIC50 [46] was less than 8.00, the pIC50 [47] was less than 8.00 and the pIC50 [48] was 8.36. It also gave a pIC50 [49] of less than 8.00, a pIC50 [50] of 8.46 and a pIC50 [51] of 8.51. The pIC50 [52] was 9.14.
